Experimental data: the NIST ThermoML archive (doi:10.1021/je1007197)

Assay: xn = mol fraction of the nth substance listed
Details: Liquid, Hot wire method

CCCCOCCO [2-butoxyethan-1-ol] + O
Details	thermal conductivity [W/m/K]
304.15 K, 100 kPa, x1 = 0.0478	0.4533
304.15 K, 100 kPa, x1 = 0.1732	0.2813
304.15 K, 100 kPa, x1 = 0.5	0.1837
304.15 K, 100 kPa, x1 = 0.75	0.1655
304.15 K, 10300 kPa, x1 = 0.5	0.1877
304.15 K, 10300 kPa, x1 = 0.75	0.169
304.15 K, 14200 kPa, x1 = 0.0478	0.4568
304.15 K, 15000 kPa, x1 = 0.5	0.189
304.15 K, 19300 kPa, x1 = 0.75	0.1717
304.15 K, 20300 kPa, x1 = 0.1732	0.2857
304.15 K, 26700 kPa, x1 = 0.5	0.1936
304.15 K, 27300 kPa, x1 = 0.0478	0.4622
304.15 K, 30000 kPa, x1 = 0.1732	0.2896
304.15 K, 39500 kPa, x1 = 0.75	0.1771
304.15 K, 41800 kPa, x1 = 0.0478	0.468
304.15 K, 41800 kPa, x1 = 0.5	0.1963
304.15 K, 47200 kPa, x1 = 0.1732	0.2942
304.15 K, 54700 kPa, x1 = 0.5	0.1995
304.15 K, 54700 kPa, x1 = 0.75	0.1812
304.15 K, 55400 kPa, x1 = 0.0478	0.4704
304.15 K, 70100 kPa, x1 = 0.0478	0.4758
304.15 K, 70200 kPa, x1 = 0.1732	0.3008
304.15 K, 70200 kPa, x1 = 0.5	0.2032
304.15 K, 76500 kPa, x1 = 0.75	0.1862
304.15 K, 83900 kPa, x1 = 0.0478	0.478
304.15 K, 84200 kPa, x1 = 0.1732	0.3043
304.15 K, 84200 kPa, x1 = 0.5	0.2066
304.15 K, 91200 kPa, x1 = 0.75	0.19
304.15 K, 98200 kPa, x1 = 0.0478	0.4845
304.15 K, 98200 kPa, x1 = 0.1732	0.3077
304.15 K, 98200 kPa, x1 = 0.75	0.1901
304.15 K, 108700 kPa, x1 = 0.5	0.2127
304.15 K, 110400 kPa, x1 = 0.1732	0.311
304.15 K, 112100 kPa, x1 = 0.0478	0.4875
304.15 K, 112200 kPa, x1 = 0.75	0.1951
304.15 K, 124800 kPa, x1 = 0.5	0.2157
304.15 K, 126000 kPa, x1 = 0.0478	0.4917
304.15 K, 126200 kPa, x1 = 0.1732	0.3147
304.15 K, 127600 kPa, x1 = 0.75	0.1976
304.15 K, 138700 kPa, x1 = 0.0478	0.4958
304.15 K, 140100 kPa, x1 = 0.1732	0.3175
304.15 K, 140100 kPa, x1 = 0.5	0.2189
304.15 K, 140100 kPa, x1 = 0.75	0.2005
304.15 K, 150600 kPa, x1 = 0.1732	0.3195
304.15 K, 150600 kPa, x1 = 0.75	0.2022
317.15 K, 100 kPa, x1 = 0.0478	0.4606
317.15 K, 16400 kPa, x1 = 0.0478	0.4669
317.15 K, 25500 kPa, x1 = 0.0478	0.4697
317.15 K, 41800 kPa, x1 = 0.0478	0.475
317.15 K, 56100 kPa, x1 = 0.0478	0.4789
317.15 K, 70600 kPa, x1 = 0.0478	0.485
317.15 K, 84200 kPa, x1 = 0.0478	0.4875
317.15 K, 98200 kPa, x1 = 0.0478	0.4926
317.15 K, 112200 kPa, x1 = 0.0478	0.4983
317.15 K, 124000 kPa, x1 = 0.0478	0.5008
317.15 K, 141000 kPa, x1 = 0.0478	0.5066
320.9 K, 100 kPa, x1 = 0.0478	0.4774
320.9 K, 2300 kPa, x1 = 0.0478	0.4714
320.9 K, 5000 kPa, x1 = 0.0478	0.4639
320.9 K, 7500 kPa, x1 = 0.0478	0.4677
320.9 K, 10000 kPa, x1 = 0.0478	0.4694
320.9 K, 12500 kPa, x1 = 0.0478	0.4703
320.9 K, 15000 kPa, x1 = 0.0478	0.4705
320.9 K, 19500 kPa, x1 = 0.0478	0.4737
320.9 K, 20000 kPa, x1 = 0.0478	0.4742
320.9 K, 29800 kPa, x1 = 0.0478	0.4774
320.9 K, 52500 kPa, x1 = 0.0478	0.4855
320.9 K, 70200 kPa, x1 = 0.0478	0.4855
320.9 K, 87700 kPa, x1 = 0.0478	0.4986
320.9 K, 105200 kPa, x1 = 0.0478	0.5044
320.9 K, 126200 kPa, x1 = 0.0478	0.5123
321.15 K, 100 kPa, x1 = 0.5	0.1829
321.15 K, 100 kPa, x1 = 0.75	0.1624
321.15 K, 10000 kPa, x1 = 0.5	0.1864
321.15 K, 10000 kPa, x1 = 0.75	0.1656
321.15 K, 19300 kPa, x1 = 0.5	0.1892
321.15 K, 19300 kPa, x1 = 0.75	0.1693
321.15 K, 19700 kPa, x1 = 0.5	0.1896
321.15 K, 28300 kPa, x1 = 0.75	0.1718
321.15 K, 39300 kPa, x1 = 0.75	0.1744
321.15 K, 41800 kPa, x1 = 0.5	0.1959
321.15 K, 56100 kPa, x1 = 0.5	0.2001
321.15 K, 56100 kPa, x1 = 0.75	0.1792
321.15 K, 70200 kPa, x1 = 0.5	0.2034
321.15 K, 71600 kPa, x1 = 0.75	0.1836
321.15 K, 84200 kPa, x1 = 0.5	0.2073
321.15 K, 84200 kPa, x1 = 0.75	0.1871
321.15 K, 96500 kPa, x1 = 0.5	0.2099
321.15 K, 98900 kPa, x1 = 0.75	0.1907
321.15 K, 111500 kPa, x1 = 0.75	0.1929
321.15 K, 112200 kPa, x1 = 0.5	0.2144
321.15 K, 124800 kPa, x1 = 0.75	0.1959
321.15 K, 126900 kPa, x1 = 0.5	0.2172
321.15 K, 141500 kPa, x1 = 0.5	0.2201
321.15 K, 142200 kPa, x1 = 0.75	0.1998
321.15 K, 149900 kPa, x1 = 0.5	0.2213
321.15 K, 150600 kPa, x1 = 0.75	0.2016
322 K, 100 kPa, x1 = 0.0478	0.4932
322 K, 5400 kPa, x1 = 0.0478	0.4886
322 K, 20000 kPa, x1 = 0.0478	0.4931
322 K, 34600 kPa, x1 = 0.0478	0.5006
322 K, 52500 kPa, x1 = 0.0478	0.5069
322 K, 70200 kPa, x1 = 0.0478	0.5149
322 K, 87700 kPa, x1 = 0.0478	0.5221
322 K, 105200 kPa, x1 = 0.0478	0.528
322 K, 119200 kPa, x1 = 0.0478	0.5322
322 K, 133200 kPa, x1 = 0.0478	0.5354
335 K, 100 kPa, x1 = 0.1732	0.2804
335 K, 10000 kPa, x1 = 0.1732	0.2851
335 K, 19000 kPa, x1 = 0.1732	0.2895
335 K, 41800 kPa, x1 = 0.1732	0.2972
335 K, 70200 kPa, x1 = 0.1732	0.306
335 K, 84200 kPa, x1 = 0.1732	0.3077
335 K, 98200 kPa, x1 = 0.1732	0.3111
335 K, 112200 kPa, x1 = 0.1732	0.3153
335 K, 125500 kPa, x1 = 0.1732	0.3205
335 K, 137300 kPa, x1 = 0.1732	0.3218
338.15 K, 100 kPa, x1 = 0.5	0.1796
338.15 K, 100 kPa, x1 = 0.75	0.1594
338.15 K, 10400 kPa, x1 = 0.5	0.1841
338.15 K, 11000 kPa, x1 = 0.75	0.1637
338.15 K, 19000 kPa, x1 = 0.5	0.1866
338.15 K, 19500 kPa, x1 = 0.5	0.1867
338.15 K, 19500 kPa, x1 = 0.75	0.1663
338.15 K, 30700 kPa, x1 = 0.75	0.1702
338.15 K, 39300 kPa, x1 = 0.75	0.1723
338.15 K, 41800 kPa, x1 = 0.5	0.1936
338.15 K, 56100 kPa, x1 = 0.5	0.1986
338.15 K, 56100 kPa, x1 = 0.75	0.1767
338.15 K, 70200 kPa, x1 = 0.5	0.2018
338.15 K, 70200 kPa, x1 = 0.75	0.1812
338.15 K, 80700 kPa, x1 = 0.5	0.2039
338.15 K, 91200 kPa, x1 = 0.75	0.1868
338.15 K, 98200 kPa, x1 = 0.5	0.2083
338.15 K, 105200 kPa, x1 = 0.75	0.1907
338.15 K, 112200 kPa, x1 = 0.5	0.2118
338.15 K, 117800 kPa, x1 = 0.75	0.1924
338.15 K, 126200 kPa, x1 = 0.5	0.2146
338.15 K, 131800 kPa, x1 = 0.75	0.1964
338.15 K, 140800 kPa, x1 = 0.5	0.2183
338.15 K, 147100 kPa, x1 = 0.75	0.1997
346.5 K, 100 kPa, x1 = 0.1732	0.2659
346.5 K, 10000 kPa, x1 = 0.1732	0.2753
346.5 K, 20000 kPa, x1 = 0.1732	0.2796
346.5 K, 29500 kPa, x1 = 0.1732	0.2834
346.5 K, 49000 kPa, x1 = 0.1732	0.2904
346.5 K, 84200 kPa, x1 = 0.1732	0.3009
346.5 K, 98200 kPa, x1 = 0.1732	0.3029
346.5 K, 112200 kPa, x1 = 0.1732	0.3046
346.5 K, 122700 kPa, x1 = 0.1732	0.31
346.5 K, 140100 kPa, x1 = 0.1732	0.3122
346.5 K, 148500 kPa, x1 = 0.1732	0.3128
